This note sets out measurements from US7842719B2 (priority 2002, dated 2010).

What is called EC90 is the concentration at which the effect reaches the 90% level. A lower EC90 goes with an effect from little substance.

The subject of one series is BVDV-strain Pe515. It is filed as cell-based, bovine viral diarrhea virus.
A further series concerns BDV. It is filed as cell-based, Border disease virus.
Another series concerns BVDV I cp. The class given is cell-based, Bovine viral diarrhea virus.
The subject of a further series is CEM/0. It is filed as cell-based, human.
In another series the test system is L1210/0. It is filed as cell-based, murine.
The subject of another series is VZV OKA. It is filed as cell-based, varicella zoster virus.
For another series, the system named is CMV Davis. The class given is cell-based, human cytomegalovirus.
The test system of the next series is HIV-2 (ROD). The class given is cell-based, human immunodeficiency virus.
A further series has as its system FM3A/0. The class given is cell-based, murine.
In another series the test system is VZV YS. It is filed as cell-based, varicella zoster virus.
The test system of a further series is HSV-1 (KOS). It is filed as cell-based, herpes simplex virus.
For another series, the system named is VV. The class given is cell-based, vaccinia virus.
Another series deals with HSV-2 (G). The class given is cell-based, herpes simplex virus.
Another series concerns Molt4/C8. It is filed as cell-based, human.
For another series, the system named is HIV-1 (IIIB). The class given is cell-based, human immunodeficiency virus.
A further series deals with CMV AD-169. It is filed as cell-based, human cytomegalovirus.

≈ marks a conversion by molar mass, not a printed value.

`C[C@H]1[C@@H](O)O[C@@H]2O[C@@]3(C)CC[C@H]4[C@H](C)CC[C@@H]1[C@@]24OO3` [Dihydroartemisinin, dihydroartemisinin]: in the series on MDBK cells, the “MTC MDBK (minimal toxic concentration)” value stood at 0.4 µg/mL and the “cell toxicity” value was “stayed low”. In the series with BVDV-strain Pe515, the “EC50 BVDV” value turned out to be 0.05 µg/mL (≈ 0.176 µM) and the “activity against BVDV” value is reported as “strong anti-viral activity”.
As for `CO[C@H]1O[C@@H]2O[C@@]3(C)CC[C@H]4[C@H](C)CC[C@@H]([C@H]1C)[C@@]24OO3` [Artemether, artemether], the toxic concentration entry in the series on Non infected cells is “around 100 μg/ml”. Moreover, in the series on BDV, the EC90 amounted to 0.8 µg/mL (≈ 2.68 µM). For the same compound, the “cell toxicity” value in the series with MDBK cells was “stayed low”. In the series on BVDV-strain Pe515, the “EC50 BVDV” value came out at 0.3 µg/mL (≈ 1.01 µM) and the “activity against BVDV” value is on record as “strong anti-viral activity”. In the series on BVDV I cp, this compound registered an EC90 of 0.16 µg/mL (≈ 0.536 µM).
As to `C[C@@H]1CC[C@H]2[C@@H](C)C(=O)O[C@@H]3O[C@@]4(C)CC[C@@H]1[C@]32OO4` [Artemisinin, artemisinin], in the series on CEM/0, the “activity against tumor cell line” value is listed as “no interesting activity”. For the same compound, the “activity against tumor cell line” value with L1210/0 is “no interesting activity”. In addition, the “EC50 VZV (HEL) OKA” value with VZV OKA was over 50 µg/mL. In the series on CMV Davis, the “EC50 CMV Davis (HEL)” value was over 50 µg/mL. Moreover, the “EC50 HIV-2 (ROD) (CEM)” value in the series on HIV-2 (ROD) was over 20 µg/mL. Further, the “activity against tumor cell line” value with FM3A/0 is listed as “no interesting activity”. The “EC50 VZV (HEL) YS” value with VZV YS is over 50 µg/mL. Further, the “EC50 HSV-1 (KOS) (E6SM)” value in the series on HSV-1 (KOS) was over 400 µg/mL. For the same compound, in the series with VV, the “EC50 VV (E6SM)” value came to 240 µg/mL (≈ 850 µM) and the “antiviral activity against VV” value is on record as “showed antiviral activity”. For the same compound, the “cell toxicity” value in the series on MDBK cells is “stayed low”. In addition, in the series on HSV-2 (G), the “EC50 HSV-2 (G) (E6SM)” value turned out to be 240 µg/mL (≈ 850 µM) and the “antiviral activity against HSV-2” value was “showed antiviral activity”. Moreover, in the series with Molt4/C8, the “activity against tumor cell line” value is given as “no interesting activity”. Moreover, in the series with HIV-1 (IIIB), the “EC50 HIV-1 (IIIB) (CEM)” value was over 20 µg/mL. Besides, in the series with BVDV-strain Pe515, the “EC50 BVDV” value worked out at 0.4 µg/mL (≈ 1.42 µM) and the “activity against BVDV” value is “strong anti-viral activity”. Also, in the series on CMV AD-169, the “EC50 CMV AD-169 (HEL)” value is over 50 µg/mL.
`C[C@H]1[C@H](OC(=O)CCC(=O)O)O[C@@H]2O[C@@]3(C)CC[C@H]4[C@H](C)CC[C@@H]1[C@@]24OO3` [Artensunate, artesunate]: in the series on MDBK cells, the “MTC MDBK (minimal toxic concentration)” value amounted to 0.4 µg/mL and the “cell toxicity” value is recorded as “stayed low”. Further, in the series on BVDV-strain Pe515, the “EC50 BVDV” value was found to be 0.07 µg/mL (≈ 0.182 µM) and the “activity against BVDV” value is listed as “strong anti-viral activity”.
